# Ends that are not written are not given here.
# Assays:
# [1] = system: methicillin resistant Staphylococcus aureus (MRSA) biofilm; conditions: approximate peptide concentration […] (around 3 μg/ml); compared to untreated samples
# Outline: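 Static biofilm assay: 1/100 dilutions of overnight cultures grown in BM2 medium (pH 7, glucose, Casamino Acids) or Luria Broth with peptide added at time zero. After 22–46 h, adherent biofilm was stained with crystal violet and read at 595 nm. Some peptides were also tested on K. pneumoniae under flow in a Bioflux system.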
# [2] = system: human peripheral blood mononuclear cells (MCP-1); experiment: SPOT-synthesized derivative screen: production of chemokine MCP-1; assay type: cell-based; conditions: Table 12, No LPS, human PBMC, peptide at ~18-24 μM; for MCP1: background subtracted 139 (HH2 derivatives), 170 (1018 derivatives), 242 (1002 and hybrid peptides) pg/ml
# Outline: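 PBMC from heparinized healthy-donor venous blood, Ficoll-separated, cultured at 0.75 to 1×10^6 cells/ml, 37 °C, 5% CO2, under the treatment regimens. MCP-1 in cell-free supernatants measured by capture ELISA.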
# [3] = system: LPS-stimulated human peripheral blood mononuclear cells (IL1-β); assay type: cell-based; conditions: Table 12, cells stimulated with 10 ng/ml LPS; for IL1β Production: LPS alone 1313 (HH2 derivatives), 1927 (1018 derivatives), 2455 (1002 and hybrid peptides) pg/ml
Substance,% Biofilm inhibition [1],Fold increase in MCP1 cf. untreated cells [2],MCP1 [2],Fold change in IL1β relative to no peptide LPS stimulated cells [3],IL1β Production [3]
HH2-V8: single substituted HH2 peptide (VQLRIRVVVIRA-NH2),66%,45,7460 pg/mL,0.53,691 pg/mL
1018-W5: single substituted 1018 peptide (VRLIWAVRIWRR-NH2) [Peptide 1018-W5],55%,0.8,-28 pg/mL,0.10,127 pg/mL
1018-A11: single substituted 1018 peptide (VRLIVAVRIWAR-NH2) [Peptide 1018-A11],59%,0.6,-65 pg/mL,0.87,1148 pg/mL
HH2-G4: single substituted HH2 peptide (VQLGIRVAVIRA-NH2),40%,148,25045 pg/mL,1.21,1582 pg/mL
1018-R3: single substituted 1018 peptide (VRRIVAVRIWRR-NH2) [Peptide 1018-R3],29%,3.0,349 pg/mL,1.25,1636 pg/mL
1002-G8: single substituted 1002 peptide (VQRWLIVGRIRK-NH2) [Peptide 1002-G8],42%,0.9,-36.2 pg/mL,0.28,692 pg/mL
1018-K2: single substituted 1018 peptide (VKLIVAVRIWRR-NH2) [Peptide 1018-K2],68%,1.5,92 pg/mL,0.10,127 pg/mL
HH2-I9: single substituted HH2 peptide (VQLRIRVAIIRA-NH2),73%,50,8276 pg/mL,0.75,980 pg/mL
HH2-G6: single substituted HH2 peptide (VQLRIGVAVIRA-NH2),33%,8.6,1287 pg/mL,1.08,1423 pg/mL
1002-V11: single substituted 1002 peptide (VQRWLIVWRIVK-NH2) [Peptide 1002-V11],68%,3.2,541.2 pg/mL,0.05,127 pg/mL
1002-Q5: single substituted 1002 peptide (VQRWQIVWRIRK-NH2) [Peptide 1002-Q5],48%,0.9,-36.2 pg/mL,0.07,180 pg/mL
1002-L8: single substituted 1002 peptide (VQRWLIVLRIRK-NH2) [Peptide 1002-L8],57%,10.8,2367.1 pg/mL,0.06,135 pg/mL
1002-W6: single substituted 1002 peptide (VQRWLWVWRIRK-NH2) [Peptide 1002-W6],53%,0.9,-36.2 pg/mL,0.05,127 pg/mL
1002-R8: single substituted 1002 peptide (VQRWLIVRRIRK-NH2) [Peptide 1002-R8],23%,1.0,-11.7 pg/mL,0.36,892 pg/mL
HH2-Q5: single substituted HH2 peptide (VQLRQRVAVIRA-NH2),25%,4.5,603 pg/mL,0.98,1284 pg/mL
1018-K12: single substituted 1018 peptide (VRLIVAVRIWRK-NH2) [Peptide 1018-K12],67%,4.1,531 pg/mL,0.10,127 pg/mL
1002-Q3: single substituted 1002 peptide (VQQWLIVWRIRK-NH2) [Peptide 1002-Q3],70%,2.4,343.8 pg/mL,0.05,127 pg/mL
1002-Q11: single substituted 1002 peptide (VQRWLIVWRIQK-NH2) [Peptide 1002-Q11],67%,13.5,3022.9 pg/mL,0.05,127 pg/mL
1018-K5: single substituted 1018 peptide (VRLIKAVRIWRR-NH2) [Peptide 1018-K5],29%,0.9,-10 pg/mL,1.31,1722 pg/mL
1018-V12: single substituted 1018 peptide (VRLIVAVRIWRV-NH2) [Peptide 1018-V12],56%,1.3,56 pg/mL,0.51,673 pg/mL
HH2-A2: single substituted HH2 peptide (VALRIRVAVIRA-NH2),69%,3.8,471 pg/mL,1.23,1612 pg/mL
1002-L2: single substituted 1002 peptide (VLRWLIVWRIRK-NH2) [Peptide 1002-L2],72%,9.1,1968.2 pg/mL,0.05,127 pg/mL
1002-G1: single substituted 1002 peptide (GQRWLIVWRIRK-NH2) [Peptide 1002-G1],68%,14.8,3335.7 pg/mL,0.05,127 pg/mL
1018-A4: single substituted 1018 peptide (VRLAVAVRIWRR-NH2) [Peptide 1018-A4],38%,0.5,-88 pg/mL,0.40,521 pg/mL
1002-V2: single substituted 1002 peptide (VVRWLIVWRIRK-NH2) [Peptide 1002-V2],72%,22.5,5209.2 pg/mL,0.05,127 pg/mL
HH2-K10: single substituted HH2 peptide (VQLRIRVAVKRA-NH2),68%,5.7,797 pg/mL,1.43,1878 pg/mL
1002-A2: single substituted 1002 peptide (VARWLIVWRIRK-NH2) [Peptide 1002-A2],68%,2.0,245.4 pg/mL,0.05,127 pg/mL
HH2-G2: single substituted HH2 peptide (VGLRIRVAVIRA-NH2),66%,3.8,471 pg/mL,1.07,1400 pg/mL
HH2-G5: single substituted HH2 peptide (VQLRGRVAVIRA-NH2),34%,2.9,321 pg/mL,1.27,1672 pg/mL
1002-G5: single substituted 1002 peptide (VQRWGIVWRIRK-NH2) [Peptide 1002-G5],59%,0.9,-36.2 pg/mL,0.25,621 pg/mL

# Source: US20190315823A1, “SMALL CATIONIC ANTI-BIOFILM AND IDR PEPTIDES” (priority 2013, published 2019)
